From patent US11162083B2, “Peptide based inhibitors of Raf kinase protein dimerization and kinase activity” (UNIVERSITY OF SOUTH CAROLINA, priority 2018, dated 2021)

Experiments:
B-Raf = B-Raf (Homo sapiens, UniProt P15056); type: binding
Description: An isothermal titration calorimeter composed of two identical cells surrounded by an adiabatic jacket was used to perform ITC measurements. The thermopile/thermocouple circuits were used to detect temperature differences between a reference cell (filled with buffer or water) and a sample cell containing the macromolecule. During an experiment, ligand is titrated into the sample cell in precisely known aliquots, causing heat to be either taken up or evolved (depending on the nature of the reaction). Measurements consist of the time-dependent input of power required to maintain equal temperatures between the sample and reference cells. In an exothermic reaction, the temperature in the sample cell increases upon addition of ligand. This causes the feedback power to the sample cell to be decreased (remember: a reference power is applied to the reference cell) in order to maintain an equal temperature between the two cells. In an endothermic reaction, the opposite occurs; the feedback circuit increases the power in order to maintain a constant temperature (isothermic/isothermal operation). […] The pattern of these heat effects as a function of the molar ratio [ligand]/[macromolecule] can then be analyzed to give the thermodynamic parameters of the interaction under study.

dimer interface of B-Raf = dimer interface of B-Raf (Homo sapiens, UniProt P15056); test: Dissociation constant (Kd) determination from intrinsic Trp fluorescence (ITF) measurements; type: binding; details: for Kd, binding affinity to the dimer forming interface of B-Raf (FIG. 1): no unit printed in this block
Protocol: The dissociation constant is an indicator of binding strength between two molecules. For the reaction: P+L↔PL Kd is expressed by Equation 1: Kd=[P][L]/[PL] Eq. 1 where [P] is the concentration of free Protein, [L] is the concentration of free Ligand, and [PL] is the Ligand-bound-Protein.
Fluorescence intensity was measured with a Hitachi F-2500 fluorescence spectrophotometer. A 1.6 mL of protein solution (0.5 μM) was placed in a cuvette and equilibrated at 15° C. for 1 hour. After equilibration, small increments (2-15 μL) of the ligand solution were injected in the cuvette. The experiments were performed in 20 mM Hepes buffer (pH 7.5), 10 mM MgCl2, 30 mM NaCl. […] The slits were set at 10 and 10 nm in the excitation and emission respectively. To determine dilution effect of B-Raf (due to ligand addition) and any fluorescence effect by unbound ligand, a blank sample containing Trp with the same fluorescence signal, was titrated with ligand additions as described above. The sample absorbance was kept below 0.1 to minimize the inner filter effect.
Dissociation constant of B-Raf/Ligand was calculated by fitting data in Eq. 2.
Data were analyzed using Origin 7, using the one site bind function for nonlinear fit.

[1] = tested on: NRASQ61K-mutant SBC12 melanoma cells; test: Western blotting of MEK/ERK signaling in melanoma cells; details: peptide added to SBC12 cells; 1 μM PLX4032 or DMSO; Western blot
Protocol: Following recovery at 37° C. for 30 minutes, the cells were treated with 1 μM PLX4032 for 1 hour or DMSO as a vehicle control. Subsequently, the cells were harvested, lysed using RIPA buffer and analyzed by Western blotting using the indicated antibodies. […] Four hours prior to harvest, the cells were treated with 1 μM vemurafenib (PLX4032), or the same volume of DMSO as vehicle control. RIPA buffer lysates were subjected to Western blotting using the indicated antibodies. Detection of HSP90 serves as a representative loading control.
Following recovery at 37° C. for 30 minutes, cells were treated with 1 μM PLX4032 for 1 hour or DMSO as a vehicle control. Subsequently, the cells were harvested, lysed using RIPA buffer, and analyzed by Western blotting using the indicated antibodies.

Chain of dimer interface of B-Raf (P15056 whole entry): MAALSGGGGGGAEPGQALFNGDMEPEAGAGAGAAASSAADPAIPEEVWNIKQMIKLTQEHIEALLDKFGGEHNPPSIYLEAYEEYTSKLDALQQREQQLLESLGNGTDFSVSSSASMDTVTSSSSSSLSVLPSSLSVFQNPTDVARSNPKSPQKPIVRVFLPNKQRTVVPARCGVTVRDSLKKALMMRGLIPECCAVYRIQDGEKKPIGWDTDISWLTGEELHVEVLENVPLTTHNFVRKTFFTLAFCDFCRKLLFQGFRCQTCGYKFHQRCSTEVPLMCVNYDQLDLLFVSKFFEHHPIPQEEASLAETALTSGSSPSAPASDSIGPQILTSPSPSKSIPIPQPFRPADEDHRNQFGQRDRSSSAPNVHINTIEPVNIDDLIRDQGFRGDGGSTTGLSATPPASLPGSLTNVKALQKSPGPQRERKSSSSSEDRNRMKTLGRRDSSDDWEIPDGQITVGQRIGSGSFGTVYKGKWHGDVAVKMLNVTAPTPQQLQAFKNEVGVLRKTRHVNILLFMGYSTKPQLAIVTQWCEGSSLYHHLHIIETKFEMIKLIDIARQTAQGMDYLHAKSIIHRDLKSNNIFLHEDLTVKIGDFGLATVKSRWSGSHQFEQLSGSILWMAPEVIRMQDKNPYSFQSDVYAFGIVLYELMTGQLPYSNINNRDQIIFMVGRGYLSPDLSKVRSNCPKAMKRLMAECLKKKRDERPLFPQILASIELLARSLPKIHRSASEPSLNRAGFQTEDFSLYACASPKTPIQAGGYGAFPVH
Chain of B-Raf (P15056 whole entry): as above

Question: How did the “ΔH of binding (ITC)” value (B-Raf) turn out when `CC[C@H](C)[C@H](NC(=O)[C@H](CC(N)=O)NC(=O)[C@@H](NC(=O)[C@H](Cc1c[nH]cn1)NC(=O)[C@H](CCCNC(=N)N)NC(=O)[C@H](C)NC(=O)[C@H](CCCCN)NC(=O)[C@H](CCCNC(=N)N)NC(=O)[C@H](CC(C)C)NC(=O)[C@@H](NC(=O)CN)C(C)C)C(C)C)C(=O)N[C@@H](CC(C)C)C(=O)N[C@@H](CC(C)C)C(=O)N[C@@H](Cc1ccccc1)C(=O)N[C@@H](CCSC)C(=O)NCC(=O)N[C@@H](Cc1ccc(O)cc1)C(=O)N[C@@H](CO)C(=O)N[C@H](C(=O)O)[C@@H](C)O` [SEQ ID NO: 8] was run?
Answer: Its value is -8.32 kcal/mol.

Question: And the “ΔS of binding (ITC)” value (B-Raf)?
Answer: Its value is −28.4 J/mol·K.

Question: How did the “Kd, binding affinity to the dimer forming interface of B-Raf (FIG. 1)” value (shortened to “Kd, binding affinity”) (dimer interface of B-Raf) turn out when GVLRKTHHVNILGFWGYST [SEQ ID NO: 2] was run?
Answer: The value was “no measurable binding”.

Question: For `CC[C@H](C)[C@H](NC(=O)[C@H](CC(N)=O)NC(=O)[C@@H](NC(=O)[C@H](Cc1cnc[nH]1)NC(=O)[C@H](CCCNC(=N)N)NC(=O)[C@@H](NC(=O)[C@H](CCCCN)NC(=O)[C@H](CC(C)C)NC(=O)[C@H](CC(C)C)NC(=O)[C@@H](NC(=O)CN)C(C)C)[C@@H](C)O)C(C)C)C(=O)N[C@@H](CC(C)C)C(=O)N[C@@H](CC(C)C)C(=O)N[C@@H](Cc1ccccc1)C(=O)N[C@@H](CCSC)C(=O)NCC(=O)N[C@@H](Cc1ccc(O)cc1)C(=O)N[C@@H](CO)C(=O)N[C@H](C(=O)O)[C@@H](C)O` [SEQ ID NO: 6], which Kd (dimer interface of B-Raf) is on record?
Answer: Its Kd is roughly 540 nM.

Question: With `CC[C@H](C)[C@H](NC(=O)[C@H](CC(N)=O)NC(=O)[C@@H](NC(=O)[C@H](Cc1c[nH]cn1)NC(=O)[C@H](CCCNC(=N)N)NC(=O)[C@@H](NC(=O)[C@H](CCCCN)NC(=O)[C@H](CCCNC(=N)N)NC(=O)[C@H](CC(C)C)NC(=O)[C@@H](N)C(C)C)[C@@H](C)O)C(C)C)C(=O)N[C@@H](CC(C)C)C(=O)N[C@@H](CC(C)C)C(=O)N[C@@H](Cc1ccccc1)C(=O)N[C@@H](CCSC)C(=O)NCC(=O)O` [SEQ ID NO: 17] as the molecule, how does the “downstream signaling of MEK and ERK (pMEK, pERK)” value [1] read?
Answer: The value was “reduce downstream signaling of MEK and ERK”.

Question: `CC[C@H](C)[C@H](NC(=O)[C@H](CC(N)=O)NC(=O)[C@@H](NC(=O)[C@H](Cc1cnc[nH]1)NC(=O)[C@H](CCCNC(=N)N)NC(=O)[C@@H](NC(=O)[C@H](CCCCN)NC(=O)[C@H](CCCNC(=N)N)NC(=O)[C@H](CC(C)C)NC(=O)[C@@H](NC(=O)CN)C(C)C)[C@@H](C)O)C(C)C)C(=O)N[C@@H](CC(C)C)C(=O)N[C@@H](CC(C)C)C(=O)N[C@@H](Cc1ccccc1)C(=O)N[C@@H](CCSC)C(=O)NCC(=O)N[C@@H](Cc1ccc(O)cc1)C(=O)N[C@@H](CO)C(=O)N[C@H](C(=O)O)[C@@H](C)O` [SEQ ID NO: 1] was tested. Which Kd (dimer interface of B-Raf) did it give?
Answer: Its Kd is roughly 3840 nM.

Question: For GVLRKTRHVNILLDMGYST [SEQ ID NO: 14], which “Kd, binding affinity” value (dimer interface of B-Raf) is on record?
Answer: The value was “no measurable binding”.

Question: GVLRKTRFVNILLFMGYST [SEQ ID NO: 9] was tested. Which “Kd, binding affinity” value (dimer interface of B-Raf) did it give?
Answer: Its value is “no measurable binding”.
